In series [1] the target is T1, Plant p-Hydroxyphenylpyruvate Dioxygenase (Arabidopsis enzyme overexpressed in E. coli) (Arabidopsis thaliana, UniProt P93836).
T1 construct: The first 11 cycles identified […]; initiator Met (ATG start codon put in front of Ser30 by oligos CAM32/CAM33) (N, cleaved yes); made in house; host or cells: E. coli BL21(DE3) carrying pE24CP1 (pET24c(+) backbone), IPTG-induced; cell extract
T1 sequence (P93836 30-445): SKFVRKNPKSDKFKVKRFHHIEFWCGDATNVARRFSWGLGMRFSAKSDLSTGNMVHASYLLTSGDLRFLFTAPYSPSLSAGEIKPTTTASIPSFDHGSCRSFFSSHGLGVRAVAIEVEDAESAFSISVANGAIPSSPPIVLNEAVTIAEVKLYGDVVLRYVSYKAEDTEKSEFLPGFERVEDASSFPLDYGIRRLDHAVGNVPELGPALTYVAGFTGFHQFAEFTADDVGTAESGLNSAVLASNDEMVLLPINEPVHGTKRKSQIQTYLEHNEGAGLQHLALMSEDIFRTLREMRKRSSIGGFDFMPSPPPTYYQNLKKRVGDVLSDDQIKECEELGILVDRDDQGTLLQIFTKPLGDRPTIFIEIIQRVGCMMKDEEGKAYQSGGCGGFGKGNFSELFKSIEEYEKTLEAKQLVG
Kind of series: 14CO2 release assay from 14C-p-hydroxyphenylpyruvate with overexpressed protein. Type of series: biochemical. The procedure:
Cell cultures with different plasmid constructs were extracted as described above and assayed by measuring the formation of ^14Co2 from [1-^14C]-p-hydroxyphenylpyruvate or ^14CO2 and ^14C-homogentisate from [U-^14C]-p-hydroxyphenylpyruvate (Lindblad, B., (1971) Clin. Chim. Acta 34:113-121; and Lindstedt, S. and Odelhog, B., (1987) Methods in Enzymology 142:143-148). The labeled substrate was prepared from [1-^14C]-L-tyrosine (55 mCi/mmol; American Radiolabeled Chemicals, Inc., St. Louis, Mo.) or [U-^14C]-L-tyrosine (498 mCi/mmol; DuPont NEN, Boston, Mass.). […]
The assay was performed in 14 mL culture tubes capped with serum stoppers through which a polypropylene well containing 200 μL of 1 N KOH was suspended. […] Six mL of Formula-989 scintillation fluid (Packard Insturments, Meriden, Conn.) was added to the vials and the ^14C radioactivity was determined by scintillation counting.
The enzymatic activity of the overexpressed protein is inhibited by two herbicides known to inhibit plant p-hydroxyphenylpyruvate dioxygenase: Sulcotrione (2-(2-chloro-4-methanesulfonylbenzoyl)-1,3-cyclohexanedione); and Isoxaflutole (5-cyclopropylisoxazol-4-yl 2-mesyl-4-trifluoromethylphenyl ketone). […] The I50 values (concentration inhibiting the enzyme 50%) were calculated based on the percent inhibition observed over several concentrations of the inhibitor.

Series [2] has as its target T1, Plant p-Hydroxyphenylpyruvate Dioxygenase (Arabidopsis enzyme overexpressed in E. coli). Kind of series: continuous spectrophotometric enol borate-tautomerase assay with overexpressed protein. Type of series: biochemical. Here is the method:
The overexpressed protein was also assayed spectrophotometrically at ambient temperature using the enol borate-tautomerase assay (Lin, E. C. C. et al., (1958) J. Biol. Chem. 233:668-673). The assay buffer contained 0.4 M borate (adjusted to pH 7.2 with 0.2 M sodium borate), 4 mM ascorbate, 2.5 mM EDTA, 40 μM p-hydroxyphenylpyruvate, and 0.5 units of tautomerase (Sigma T-6004) per 10 mL buffer. The reaction mix was used when the tautomerization of the substrate was complete (when absorbance at 308 nm had stabilized). The assay was initiated by adding 40 μL of the cell extracts to 960 μL of the assay buffer, and the reaction was followed by measuring the decrease in absorbance at 308 nm.
The enzymatic activity of the overexpressed protein is inhibited by two herbicides known to inhibit plant p-hydroxyphenylpyruvate dioxygenase: Sulcotrione (2-(2-chloro-4-methanesulfonylbenzoyl)-1,3-cyclohexanedione); and Isoxaflutole (5-cyclopropylisoxazol-4-yl 2-mesyl-4-trifluoromethylphenyl ketone). These two compounds were tested against the overexpressed protein using both the ^14CO2 and the continuous spectrophotometric enol borate-tautomerase assays. Both compounds were added to the assay buffers in 10 μL of acetone or dimethyl sulfoxide. The I50 values (concentration inhibiting the enzyme 50%) were calculated based on the percent inhibition observed over several concentrations of the inhibitor.

Series [3] in a line: storage stability of purified enzyme constructs, activity by tautomerase coupled spectrophotometric assay. Type of series: physicochemical, Arabidopsis thaliana. Conditions: 1 mg/mL in 20 mM bis tris-propane buffer pH 7.2, 5 mM ascorbate, 1 mM reduced glutathione, 0.1 mM ferrous ammonium sulfate, stored at 4 °C. The text has this: Two different constructs for Arabidopsis thaliana p-hydroxyphenyl-pyruvate dioxygenase, one containing the full-length sequence, PDO-B as described in Example 5 and produced from plasmid pE24PDO-B, and one containing the truncated sequence lacking the putative chloroplast leader sequence, PDO-A as produced from plasmid pE24CP1, were both purified to the same extent using a Pharmacia phenyl Sepharose hydrophobic interaction column followed by gel filtration chromatography on Pharmacia Sephacryl 300. The two proteins were diluted to 1 mg/mL in 20 mM bis tris-propane buffer, pH 7.2 containing 5 mM ascorbate, 1 mM reduced glutathione and 0.1mM ferrous ammonium sulfate and stored in a refrigerator at 4 ° C. for up to 10 days. Aliquots were removed at various times and assayed for activity using the tautomerase coupled spectrophotometric assay. […] In addition, the activity of the full length enzyme could be restored by incubation with iron and reducing agent, reduced glutathione or ascorbate, or by dialysis against buffer containing iron and reducing agent. In contrast, the activity of the truncated enzyme could not be restored by incubation with or dialysis against buffer containing iron and reducing agent.

For `CS(=O)(=O)c1ccc(C(=O)C2C(=O)CCCC2=O)c(Cl)c1` [sulcotrione, 2-(2-chloro-4-methanesulfonylbenzoyl)-1,3-cyclohexanedione], the results for the IC50 in series [1] and in series [2] were 43 nM and 44 nM, respectively. `CS(=O)(=O)c1cc(C(F)(F)F)ccc1C(=O)c1cnoc1C1CC1` [isoxaflutole, 5-cyclopropylisoxazol-4-yl 2-mesyl-4-trifluoromethylphenyl ketone]: the IC50 in series [1] (concentration inhibiting the enzyme 50%, inhibitor added in 10 μL acetone or dimethyl sulfoxide, read-out: I50 value derived from 14CO2 assay) was 409 nM; in series [2] (concentration inhibiting the enzyme 50%, absorbance at 308 nm, read-out: I50 value derived from spectrophotometric assay), 1040 nM.

B1: PDO-B: full-length Arabidopsis thaliana p-hydroxyphenylpyruvate dioxygenase produced from plasmid pE24PDO-B (protein, UniProt P93836 1-445, looked up)
chain: MGHQNAAVSENQNHDDGAASSPGFKLVGFSKFVRKNPKSDKFKVKRFHHIEFWCGDATNVARRFSWGLGMRFSAKSDLSTGNMVHASYLLTSGDLRFLFTAPYSPSLSAGEIKPTTTASIPSFDHGSCRSFFSSHGLGVRAVAIEVEDAESAFSISVANGAIPSSPPIVLNEAVTIAEVKLYGDVVLRYVSYKAEDTEKSEFLPGFERVEDASSFPLDYGIRRLDHAVGNVPELGPALTYVAGFTGFHQFAEFTADDVGTAESGLNSAVLASNDEMVLLPINEPVHGTKRKSQIQTYLEHNEGAGLQHLALMSEDIFRTLREMRKRSSIGGFDFMPSPPPTYYQNLKKRVGDVLSDDQIKECEELGILVDRDDQGTLLQIFTKPLGDRPTIFIEIIQRVGCMMKDEEGKAYQSGGCGGFGKGNFSELFKSIEEYEKTLEAKQLVG
modifications: full-length
For B1, the “half-life for the activity” value in series [3] was 96 h.

The record behind these values is patent publication US20030066102A1, “Plant gene for p-hydroxyphenylpyruvate dioxygenase” (priority 1996, published 2003).
